Experimental data reported in patent US20210283107A1, “Methods to Expand the Spectrum of Gram-Positive Antibiotics” (NORTH CAROLINA STATE UNIVERSITY, priority 2016, published 2021).
In brackets after ≈: the same amount, converted by molar mass.

Legend:
[1] = tested on: A. baumannii mutant AB1310; test: MIC against Tn-seq transposon mutant AB1310; format: cell-based; settings: Acinetobacter baumannii
Experimental: (§1) During individual MIC screening, two mutants, AB522 and AB1310, were identified due to their increased sensitivity to the three macrolide antibiotics and vancomycin when compared to AB 5075 (Table 17).
(§2) Day Cultures (6 h) were subcultured to 5×10^5 CFU/mL in cation adjusted Mueller-Hinton broth (CAMHB). Aliquots (1 mL) were placed in culture tubes, and compound was added from 100 mM stock solutions, such that the compound concentration equaled the highest concentration tested (200 μM or 64 μg/mL). Samples were then aliquoted (200 μL) into the first row of wells of a 96-well plate, with all remaining wells being filled with 100 μL of initial bacterial subculture. The wells in row one were mixed five times before 100 μL was transferred to the following row (row two). Row two was then mixed five times, and 100 μL was transferred to row three. This processed was repeated until the final row had been mixed. This process provided a serial dilution of the compound. Plates were covered with Glad Press n'Seal and were incubated under stationary conditions at 37° C. for 16 hours. MIC values were recorded as the lowest concentration at which no bacterial growth was observed.

[2] = tested on: A. baumannii strain 5075 (AB5075); test: Macrolide sensitization / antibiotic resensitization: antibiotic MIC in presence of compound (broth microdilution); format: cell-based, Acinetobacter baumannii
Experimental: A. baumannii 5075 was plated on LB agar, then grown in CAMHB for 6-8 h and this culture was used to inoculate fresh CAMHB (5×10^5 CFU/mL). The resulting suspension was aliquoted (5 mL) into culture tubes and compound, from 100 mM DMSO stock, was added. One aliquot was not treated (control). 1 mL of each sample was transferred to a new culture tube and antibiotic was added. Rows 2-12 of a 96-well microtiter plate were filled with 100 μL/well from the remaining 4 mL bacterial subcultures, allowing the concentration of compound to be kept uniform throughout the antibiotic dilution procedure. Samples containing antibiotic were aliquoted (200 μL) into the corresponding first row wells of the microtiter plate. Row 1 wells were mixed 6 to 8 times then 100 μL was withdrawn and transferred to row 2. Row 2 wells were mixed 6 to 8 times, followed by a 100 μL transfer from row 2 to row 3. This procedure was repeated to serially dilute the rest of the rows of the microtiter plate, with the exception of the final row, to which no antibiotic was added (to check for growth of bacteria in the presence of compound alone). The microtiter plate was then covered, placed in a covered damp plastic container and incubated under stationary conditions at 37° C. After 16-18 hrs minimum inhibitory concentration (MIC) values were recorded as the lowest concentration of antibiotic at which there was no visible growth of bacteria. Experiments were carried out in duplicate each time and repeated at least twice.
The difference in antibiotic MIC between the control (no compound) sample, and the samples containing each compound was recorded as the fold-reduction.
(§3) Day Cultures (6 h) were subcultured to 5×10^5 CFU/mL in cation adjusted Mueller-Hinton broth (CAMHB). […] One milliliter of the resulting solution was aliquoted into a separate culture tube and was dosed with antibiotic so that the resulting concentration was the highest desirable concentration to be tested. Bacteria treated with antibiotic alone were used as a control. Row one of a 96-well plate was filled with 200 μL of the antibiotic/compound solution, and the remaining rows were filled with 100 μL of the remaining 4 mL bacterial subculture. The wells in row one were mixed five times before 100 μL was transferred to the following row (row two). Row two was then mixed five times, and 100 μL was transferred to row three. This process was repeated until the second to last row had been reached. The last row is left unexposed to antibiotic in order to serve as a negative control. The antibiotic only treated bacteria was plated by aliquoting 200 μL of the treated bacteria into row one and filling the remaining rows with untreated bacteria from the original bacteria subculture. The rows were mixed in the same way as described above. Plates were covered with Glad Press n'Seal and were incubated under stationary conditions at 37° C. for 16 hours. MIC values were recorded as the lowest concentration at which no bacterial growth was observed. Fold reductions were determined by comparison of the compound treated wells with the antibiotic only treated control wells.

A. baumannii strain 5197 = test: Potentiation of clarithromycin and vancomycin against clinical isolate; format: cell-based, Acinetobacter baumannii; settings: antibiotic alone
Experimental: (§4) As previously stated, A. baumannii 5075 was chosen for these studies due to its virulence and multidrug resistance, but to further analyze the activity of our lead compounds, 23 A. baumannii clinical isolates obtained from Walter Reed Army Institute of Research (WRAIR) were tested.
as §3

A. baumannii strain 4498 = test: as above; format: cell-based, Acinetobacter baumannii; settings: antibiotic alone
Experimental: as §4, §3

A. baumannii strain 4026 = test: as above; format: cell-based, Acinetobacter baumannii; settings: antibiotic alone
Experimental: as §4, §3

A. baumannii strain 4025 = test: as above; format: cell-based, Acinetobacter baumannii; settings: antibiotic alone
Experimental: as §4, §3

A. baumannii strain 4490 = test: as above; format: cell-based, Acinetobacter baumannii; settings: antibiotic alone
Experimental: as §4, §3

A. baumannii strain 3560 = test: as above; format: cell-based, Acinetobacter baumannii; settings: antibiotic alone
Experimental: as §4, §3

A. baumannii strain 5711 = test: as above; format: cell-based, Acinetobacter baumannii; settings: antibiotic alone
Experimental: as §4, §3

A. baumannii strain 4448 = test: as above; format: cell-based, Acinetobacter baumannii; settings: antibiotic alone
Experimental: as §4, §3

A. baumannii strain 3785 = test: as above; format: cell-based, Acinetobacter baumannii; settings: antibiotic alone
Experimental: as §4, §3

A. baumannii strain 4027 = test: as above; format: cell-based, Acinetobacter baumannii; settings: antibiotic alone
Experimental: as §4, §3

A. baumannii strain 4878 = test: as above; format: cell-based, Acinetobacter baumannii; settings: antibiotic alone
Experimental: as §4, §3

A. baumannii strain 4991 = test: as above; format: cell-based, Acinetobacter baumannii; settings: antibiotic alone
Experimental: as §4, §3

A. baumannii strain 3927 = test: as above; format: cell-based, Acinetobacter baumannii; settings: antibiotic alone
Experimental: as §4, §3

A. baumannii strain 4052 = test: as above; format: cell-based, Acinetobacter baumannii; settings: antibiotic alone
Experimental: as §4, §3

A. baumannii strain 4456 = test: as above; format: cell-based, Acinetobacter baumannii; settings: antibiotic alone
Experimental: as §4, §3

A. baumannii strain 3806 = test: as above; format: cell-based, Acinetobacter baumannii; settings: antibiotic alone
Experimental: as §4, §3

A. baumannii strain 4957 = test: as above; format: cell-based, Acinetobacter baumannii; settings: antibiotic alone
Experimental: as §4, §3

A. baumannii strain 8967 = test: as above; format: cell-based, Acinetobacter baumannii; settings: antibiotic alone
Experimental: as §4, §3

A. baumannii strain 4269 = test: as above; format: cell-based, Acinetobacter baumannii; settings: antibiotic alone
Experimental: as §4, §3

A. baumannii strain 4795 = test: as above; format: cell-based, Acinetobacter baumannii; settings: antibiotic alone
Experimental: as §4, §3

A. baumannii strain 5001 = test: as above; format: cell-based, Acinetobacter baumannii; settings: antibiotic alone
Experimental: as §4, §3

A. baumannii strain 5256 = test: as above; format: cell-based, Acinetobacter baumannii; settings: antibiotic alone
Experimental: as §4, §3

[3] = tested on: A. baumannii mutant AB522; test: MIC against Tn-seq transposon mutant AB522; format: cell-based; settings: Acinetobacter baumannii
Experimental: as §1, §2

A. baumannii strain 4857 = test: Potentiation of clarithromycin and vancomycin against clinical isolate; format: cell-based, Acinetobacter baumannii; settings: antibiotic alone
Experimental: as §4, §3

AB5075 [4] = test: G. mellonella model infected with AB5075, survival; format: in vivo, Galleria mellonella
Experimental: Galleria mellonella larvae (Speedy Worm, Alexandria, Minn.) were used within ten days of shipment from the vendor. After reception of worms, larvae were kept in the dark at room temperature for at least 24 h before infection. Larvae weighing between 200 to 300 mg were used in the survival assay. Using a 10 μL glass syringe (Hamilton, Reno, Nev.) fitted with a 30 G needle (Exel International, St. Petersburg, Fl), 5 μL of the desired compound and concentration were injected into the last left proleg. After 2.5 h, a second 5 μL injection containing 6×10^5 CFU of Acinetobacter baumannii 5075 was injected into the second to last left proleg. Injected worms were left at room temperature in the dark while being assessed at 24 h intervals over 6 days. […] Experiment was repeated 7 times using 10 larvae per experimental group.

AB5075 [5] = test: Checkerboard assay for FIC determination with colistin; format: cell-based, Acinetobacter baumannii; settings: chequerboard, ΣFIC≥2 considered antagonistic
Experimental: Against AB5075, we determined that the ΣFIC with compound 1 to be 17 and the ΣFIC with compound 10 to be 33. These ΣFIC values indicate that both compounds are highly antagonistic with colistin as a ΣFIC≥2 is considered antagonistic.
Day Cultures (6 h) of A. baumannii 5075 were subcultured to 5×10^5 CFU/mL in cation adjusted Mueller-Hinton broth (CAMHB). 100 μL of the inoculated media was distributed into all wells of a 96-well plate except well 1A. Inoculated CAMHB (200 μL) containing compound (twice the highest concentration tested) was added to well 1A, and 100 μL of the same sample was added to wells 2A-12A. The contents in column A were mixed five times before 100 μL was transferred to column B. The contents of column B were mixed 5 times before transferring to column C. This process was repeated with the remainder of the columns up to column G. Column H was not mixed to allow determination of the antibiotic MIC alone. […] Row 12 was not mixed so that the MIC of the compound alone could be determined. The MICs of both compound and antibiotic alone were recorded, as well as the wells containing the combination. The ΣFICs were calculated as follows: ΣFIC=FIC (Compound)+FIC (antibiotic), where FIC (compound) is the MIC of the compound in the combination/MIC of the compound alone and the FIC (antibiotic) is the MIC of the antibiotic in combination/the MIC of the antibiotic alone. […]

[6] = tested on: A. baumannii strain 5075 (AB5075); test: Broth microdilution MIC determination of compound alone; format: cell-based; settings: Acinetobacter baumannii; compound alone; AB5075; read-out: MIC
Experimental: Our initial screening began by testing a diverse selection of 2-AI compounds from our internal library for their minimal inhibitory concentrations (MIC) against A. baumannii isolate 5075.
as §2

Structure (SMILES)	MIC [1]	MIC (μg/mL) of the antibiotic (A. baumannii strain 5197)	MIC (μg/mL) of the antibiotic (A. baumannii strain 4498)	MIC (μg/mL) of the antibiotic (A. baumannii strain 4026)	MIC (μg/mL) of the antibiotic (A. baumannii strain 4025)	MIC (μg/mL) of the antibiotic (A. baumannii strain 5711)	MIC (μg/mL) of the antibiotic (A. baumannii strain 3785)	MIC (μg/mL) of the antibiotic (A. baumannii strain 4027)	MIC (μg/mL) of the antibiotic (A. baumannii strain 3806)	MIC (μg/mL) of the antibiotic (A. baumannii strain 8967)	MIC [3]	further results
CN[C@H](CC(C)C)C(=O)N[C@H]1C(=O)N[C@@H](CC(N)=O)C(=O)N[C@H]2C(=O)N[C@H]3C(=O)N[C@H](C(=O)N[C@H](C(=O)O)c4cc(O)cc(O)c4-c4cc3ccc4O)[C@H](O)c3ccc(c(Cl)c3)Oc3cc2cc(c3O[C@@H]2O[C@H](CO)[C@@H](O)[C@H](O)[C@H]2O[C@H]2C[C@](C)(N)[C@H](O)[C@H](C)O2)Oc2ccc(cc2Cl)[C@H]1O [Vancomycin, reference compound]	64 µg/mL (≈ 44.2 µM)	512 µg/mL	512 µg/mL	512 µg/mL	512 µg/mL	>512 µg/mL	512 µg/mL	512 µg/mL	256 µg/mL	512 µg/mL	64 µg/mL (≈ 44.2 µM)	MIC ([2]; Acinetobacter baumannii, read-out: MIC (μg/mL) of the antibiotic): 256 µg/mL; MIC (μg/mL) of the antibiotic (A. baumannii strain 4490): 256 µg/mL; MIC (μg/mL) of the antibiotic (A. baumannii strain 3560): 256 µg/mL; MIC (μg/mL) of the antibiotic (A. baumannii strain 4448): 512 µg/mL; MIC (μg/mL) of the antibiotic (A. baumannii strain 4878): 512 µg/mL; MIC (μg/mL) of the antibiotic (A. baumannii strain 4991): 512 µg/mL; MIC (μg/mL) of the antibiotic (A. baumannii strain 3927): 256 µg/mL; MIC (μg/mL) of the antibiotic (A. baumannii strain 4052): >512 µg/mL; MIC (μg/mL) of the antibiotic (A. baumannii strain 4456): 512 µg/mL; MIC (μg/mL) of the antibiotic (A. baumannii strain 4957): 512 µg/mL; MIC (μg/mL) of the antibiotic (A. baumannii strain 4269): 512 µg/mL; MIC (μg/mL) of the antibiotic (A. baumannii strain 4795): >512 µg/mL; MIC (μg/mL) of the antibiotic (A. baumannii strain 5001): 512 µg/mL; MIC (μg/mL) of the antibiotic (A. baumannii strain 5256): 512 µg/mL
CC[C@H]1OC(=O)[C@H](C)[C@@H](O[C@H]2C[C@@](C)(OC)[C@@H](O)[C@H](C)O2)[C@H](C)[C@@H](O[C@@H]2O[C@H](C)C[C@H](N(C)C)[C@H]2O)[C@](C)(OC)C[C@@H](C)C(=O)[C@H](C)[C@@H](O)[C@]1(C)O [Clarithromycin, reference compound]	2 µg/mL (≈ 2.67 µM)	64 µg/mL	64 µg/mL	64 µg/mL	64 µg/mL	64 µg/mL	64 µg/mL	64 µg/mL	16 µg/mL	16 µg/mL	2 µg/mL (≈ 2.67 µM)	MIC (μg/mL) of the antibiotic (A. baumannii strain 4857): 64 µg/mL; survival after 6 days (AB5075 [4]; clarithromycin alone at 25 mg/kg): 1%
CO[C@H]1/C=C/O[C@@]2(C)Oc3c(C)c(O)c4c(O)c(c(/C=N/N5CCN(C)CC5)c(O)c4c3C2=O)NC(=O)/C(C)=C\C=C\[C@H](C)[C@H](O)[C@@H](C)[C@@H](O)[C@@H](C)[C@H](OC(C)=O)[C@@H]1C [rifampin, reference compound]												survival after 6 days (AB5075 [4]; rifampin at 30 mg/kg, one injection): 64%
Nc1nc(-c2ccc(NC(=O)c3c(Cl)cc(Cl)cc3Cl)cc2)c[nH]1 [Compound 10]												ΣFIC with colistin (AB5075 [5]): 33; Fold reduction (erythromycin MIC) ([2]; compound at 30 μM vs antibiotic alone, AB5075): 8 fold; MIC [6]: 100 µM (≈ 38.2 µg/mL)
